{"source": "patent US10945961B2", "about": "“Method using enteric-coated etidronate for treating calcification, hypercalcaemia, and calcinosis of the brain and other organs” (ZY YTHERAPEUTICS LLC, priority 2017, dated 2021)", "origin": "cited, not measured here", "key": {"[1]": {"settings": "for plasma half-life: comparison of first- with 2nd and 3rd generation bisphosphonates"}, "[2]": {"settings": "animal studies"}, "[3]": {"settings": "preclinical studies; immediate-release"}, "[4]": {"tested_on": "patients with brain calcifications (Fahr's Disease)"}, "[5]": {"settings": "in vitro"}}, "note": "Entries after “also recorded” stand apart in the source; their conditions may differ.", "data": [{"smiles": "CC(O)(P(=O)(O)O)P(=O)(O)O", "note": "[disodium etidronate, 1-hydroxyethane 1,1-diphosphonic acid]", "values": [{"measurement": "plasma half-life", "setting": "[1]", "value": 6, "unit": "h"}, {"measurement": "metabolism", "setting": "[1]; in vivo", "value": "not metabolized"}, {"measurement": "amount of drug absorbed after an oral dose", "setting": "[1]; oral dose, immediate-release", "value": 3, "unit": "%"}, {"measurement": "absorbed dose excreted in urine", "setting": "[1]; within 24 hours, fraction of the absorbed dose", "value": "approximately half"}, {"measurement": "bone clearance estimates", "setting": "[2]", "value": "up to 165 days"}, {"measurement": "crossing of the blood-brain barrier", "setting": "[3]", "value": "does not significantly cross the blood-brain barrier"}, {"measurement": "symptomatic effect (seizures, headaches, Parkinsonian symptoms)", "setting": "[4]; patients with brain calcification", "value": "reduction in seizures and headaches; also recorded: symptomatic improvement of seizures, headaches, and Parkinsonian symptoms"}, {"measurement": "size of intracerebral calcifications", "setting": "[4]; patients, finding of Loeb", "value": "does not reduce the size of intracerebral calcifications"}, {"measurement": "affinity for solid-phase calcium phosphate", "setting": "[5]", "value": "high affinity"}]}, {"smiles": "O=P(O)(O)C(O)(Cn1ccnc1)P(=O)(O)O", "note": "[zolendronic acid]", "values": [{"measurement": "plasma half-life", "setting": "[1]", "value": 146, "unit": "h"}]}]}
